Values joined by “and” are separate entries in the source; they are usually repeats but may differ in a detail not shown here. Identical values can stand only once.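 Five compound concentrations were applied to cells in 96-well plates for 48 hours; endpoints were derived by simple linear interpolation of the resulting dose-response curve. The concentration for 50% growth inhibition is given as GI50. Definition used: TGI = concentration required for complete inhibition of growth.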
What was measured:
Assay in all cases: NCI tumour cell line growth inhibition, 48 h
MOLT-4 leukemia = test system: MOLT-4 leukemia
A498 renal = test system: A498 renal
UACC-62 melanoma = test system: UACC-62 melanoma
SNB-78 CNS = test system: SNB-78 CNS
DLD-1 colon = test system: DLD-1 colon
SR leukemia = test system: SR leukemia
TK-10 renal = test system: TK-10 renal
SF-539 CNS = test system: SF-539 CNS
BT-549 breast = test system: BT-549 breast
HS 578T breast = test system: HS 578T breast

Compound	TGI (MOLT-4 leukemia) [µM]	TGI (A498 renal) [µM]	TGI (UACC-62 melanoma)	TGI (SNB-78 CNS) [µM]	TGI (DLD-1 colon) [µM]	TGI (SR leukemia) [µM]	TGI (TK-10 renal) [µM]	TGI (SF-539 CNS) [µM]	GI50 (MOLT-4 leukemia)	GI50 (BT-549 breast) [µM]	TGI (BT-549 breast) [µM]	GI50 (SF-539 CNS) [µM]	GI50 (A498 renal) [µM]	GI50 (UACC-62 melanoma) [µM]	GI50 (HS 578T breast) [µM]	TGI (HS 578T breast) [µM]	GI50 (SR leukemia) [µM]	GI50 (TK-10 renal) [µM]	GI50 (DLD-1 colon) [µM]	GI50 (SNB-78 CNS) [µM]
O=c1c2ccccc2nc(/C=C(\O)c2ccncc2)n1-c1ccc(Cl)cc1	> 100	> 100	> 100 µM	> 100	> 100	> 100	> 100													
COC(=O)c1ccccc1N1C(=O)Cc2ccccc2C1=O	> 100		> 100 µM	> 100		> 100	> 100	> 100												
CCOC(=O)Cc1csc(Nc2ccc(OCC)cc2)n1	> 100	> 100		> 100	> 100	> 100	> 100	> 100												
CCCCC(C(=O)CCC(=O)Nc1ccc(Cl)c(Cl)c1)C(=O)C(C)C (stereo not given)	> 100	> 100	> 100 µM	> 100	> 100	> 100	> 100	> 100												
C(=N\Nc1ccccc1)/c1nc2ccccc2nc1/C=N/Nc1ccccc1	79.8	31.1	27.3 µM	42.7	40.9	> 84.7	31.6	30.8												
Nc1nc(Cl)cc(NCC(O)CO)n1 (stereo not given)	> 100	> 100	> 100 µM	> 100	> 100	> 100	> 100	> 100												
COc1cc(O)c2c(c1)O[C@@H]1OCC[C@H]21	> 100	> 100	> 100 µM	> 100	> 100	> 100	> 100	> 100												
CCC(O)C1Cc2c(C)cc3c(c2O1)C(=O)c1ccccc1C3=O (stereo not given)	> 100	70.3	> 100 µM	90.6	> 100	> 100	> 100													
O=C(c1ccccc1)C(c1ccccc1)C1(O)C(=O)Nc2ccc([N+](=O)[O-])cc21 (stereo not given)	> 100	> 100	> 100 µM	> 100	> 100		> 100	> 100												
Nc1nc(N)c(-c2ccccc2)c(C(=O)Nc2ccccc2)n1	> 100	> 100	> 100 µM	> 100	> 100		> 100	> 100												
CCOC(=O)C(N=C(c1ccccc1)c1ccccc1)N(C(=O)OC(C)(C)C)C(=O)OC(C)(C)C (stereo not given)	> 100		> 100 µM	> 100		> 100	> 100	> 100												
COc1ccc(Cc2c(=O)[nH]nc3ccccc23)cc1	> 100	> 100	> 100 µM	> 100	> 100		> 100	> 100												
CCCCNC(=O)C1C(=O)N(CCCC)C(=O)/C1=N\N (stereo not given)	> 100	> 100	> 100 µM	> 100			> 100	> 100												
COc1cc(/C(=C2/O[C@@H]([C@H]3COC(C)(C)O3)[C@H]3OC(C)(C)O[C@@H]23)c2ccc3ccccc3c2)cc(OC)c1OC	> 100	74.6	> 100 µM			> 100	7.2	79	> 100 µM	3.22	8.1	14.3	17.8	7.13	4.44	53.4	> 100	3.2		
COc1cc2c(c(OC)c1OC)-c1ccc(OC)c(=O)cc1[C@@H](NC(C)=O)CC2			> 100 µM and > 77.4 µM and 91.7 µM		> 625	> 100	> 100		< 0.01 µM and 0.0352 µM and 0.0625 µM		> 70.9					> 100	< 0.01	> 100	0.0176	
COc1cccc(/C=N/NC(=O)c2ccccc2N2CCCC2)c1O	> 100	> 100	19.7 µM			> 100	> 100	24.1	1.52 µM	12.6	> 100	3.73	4.97	3.73	10.3	68.8	4.2	5.38		
COc1ccc2c(c1)CC[C@@H]1[C@@H]2CC[C@]2(C)c3c(cc(C(=O)O)c4sccc34)C[C@@H]12	25.4	34.9	36.5 µM			45.1	48.1	35.1	10.1 µM	18.7	38.8	16.7	15.6	17.1	28.7	96.1	16.4	19.2		
CC[C@@H](C(=O)[C@H](C)[C@H](O)[C@@H](C)[C@H]1O[C@H]([C@@H](CC)C(=O)N(CC)CC)CC[C@H]1C)C1O[C@]2(C=C[C@@H](O)[C@]3(CC[C@@](C)([C@H]4CC[C@](O)(CC)[C@H](C)O4)O3)O2)[C@H](C)C[C@@H]1C (stereo not given in full)	7.05	8.21	10.8 µM			13.6	26.7	10.5	2.55 µM	3.33	14.8	3.01	2.44	2.43	2.9	13.8	2.91	3.35		
CCOC(=O)c1cc(C(=O)c2cc(OC)c(OC)c(OC)c2)n2c1ccc1ccccc12	> 100	0.316	> 100 µM			> 100	> 100	0.723	0.477 µM	1.08	> 100	0.216	0.0362	0.171	0.276	> 20.6	0.0704	2.37		

Compound	TGI (MOLT-4 leukemia) [µM]	TGI (A498 renal) [µM]	TGI (UACC-62 melanoma)	TGI (SNB-78 CNS) [µM]	TGI (DLD-1 colon) [µM]	TGI (SR leukemia) [µM]	TGI (TK-10 renal) [µM]	TGI (SF-539 CNS) [µM]	GI50 (MOLT-4 leukemia)	GI50 (BT-549 breast) [µM]	TGI (BT-549 breast) [µM]	GI50 (SF-539 CNS) [µM]	GI50 (A498 renal) [µM]	GI50 (UACC-62 melanoma) [µM]	GI50 (HS 578T breast) [µM]	TGI (HS 578T breast) [µM]	GI50 (SR leukemia) [µM]	GI50 (TK-10 renal) [µM]	GI50 (DLD-1 colon) [µM]	GI50 (SNB-78 CNS) [µM]
O=[N+]([O-])c1cc([N+](=O)[O-])c(/C=C/c2ccc(Cl)c(Cl)c2)cc1/C=C/c1ccc(Cl)c(Cl)c1	62.4	> 100	79.6 µM	> 100			> 100	51.5												
CCCCCCCCC/C(=N\NC(=O)c1ccncc1)c1ccc(O)c(O)c1O	25.3	> 100	3.3 µM			24.4	> 100	8.71	0.246 µM	0.36	67.2	0.294	1.56	0.188		> 100	0.0576	0.196		
C[C@@H](NC(=O)/C(C#N)=C/c1ccc([N+](=O)[O-])cc1)c1ccccc1	7.3	8.49	3.71 µM			5.55	12.1	3.37	3.02 µM	1.75	3.55	1.7	4.25	1.8	5.92	> 32.9	1.73	5.07		
Cc1cc(O)cc(C)c1/C=C/c1cncc(C(N)=O)c1	> 25	17.4	23.1 µM			> 25	> 25	16.5	3.27 µM	4.51	> 25	1.87	1.65	1.36	1.72	11.2	1.06	5.99		
CC[C@@]1(O)C(=O)OCc2c1cc1n(c2=O)Cc2cc3cccc([N+](=O)[O-])c3nc2-1		5.03	1.28 µM	> 100	> 100		> 100	2.89				0.478	1.43	0.299				21	24.6	34.3
S=C(NCCNC(=S)[S][Sn]([c]1ccccc1)([c]1ccccc1)[c]1ccccc1)[S][Sn]([c]1ccccc1)([c]1ccccc1)[c]1ccccc1	0.309	0.0849	0.104 µM			16.2	0.126	0.203	0.0222 µM	0.0799	0.183	0.0682	0.0231	0.0231	0.0564	0.461	0.017	0.0612		
CONC(C)=O	> 100	> 100	> 100 µM			> 100	> 100	> 100			> 100					> 100				
COCCNc1ccc2c3c(cccc13)C(=O)N(CCN(C)C)C2=O	13	21.5	14.4 µM			11.4	22.1	> 25	4.98 µM	10.7	> 25	7.04	6.16	4.54	9.38	> 25	3.67	4.2		
N#Cc1c(N2CCOCC2)nc(=S)[nH]c1-c1ccccc1	> 100	26.8	> 100 µM			> 100	> 100	> 100	10.7 µM	8.78	> 100	13.2	3.66	4.95	7.65	60.7	29	20.7		
CCCc1cc(=O)n2c(C(=O)Nc3cccc(C(=O)OCC)c3)c(C(=O)Nc3ccc(F)cc3)sc2n1	> 140	32.2	> 140 µM			> 140	22.1	> 140	> 140 µM	> 140	> 140	23.8	8.57	48.4	1.3	6.37	51.7	5.72		
CN1CCC2(CC1)NC(=O)c1c(c3ccc(Cl)c(Cl)c3n1C)C2C#N (stereo not given)	> 28	24.1	3.22 µM			5.36	23.4	17.9	4.52 µM	2.62	12.5	5.51	9.05	1.66	7.63	45.6	1.65	10.5		
N#CCCCCCOCCOCCOCCOCCOCCCCCC#N	> 100	> 100	> 100 µM		> 100	> 100	> 100													
Cc1nn2c(nc1=O)sc1ccc3ccccc3c12	> 100		> 100 µM	> 100	> 100	> 100	> 100	> 100												
CCN1C(=O)N(CC)C2C1NN=c1s/c(=C\c3ccco3)c(=O)n12 (stereo not given)	> 100		> 100 µM			> 100	> 100	6.48	0.824 µM	0.791	> 100	0.402	0.39	0.446	0.459	> 100	0.196	19.7		
CCCCCCCCCCCC(=O)N1CCN(C(C)=O)CC1	47.8	> 100	34.9 µM			53.5	72.1	32.4	20.8 µM	24.6	58.1	18	62.7	19.7	21.5	48.4	22	31		
CCCNCC(=O)O[C@]1(CC)C(=O)OCc2c1cc1n(c2=O)Cc2cc3ccccc3nc2-1	0.0699	0.849	1.12 µM		> 100		> 100	0.136												
C[C@]12CC[C@@H]3c4cc(O)c(O)cc4CC[C@H]3[C@@H]1CC[C@@H]2O	77.2	62.3	29.1 µM			48.5	> 74.9	5.45	3.51 µM	1.78	42.3	1.64	19.7	3.9	1.98	17.5	0.576	24.8		
COC(=O)C1=CO[C@@H](OC2OC(CO)C(O)C(O)C2O)[C@H]2[C@@H](C)[C@@H](O)[C@@H](O)[C@@H]12 (stereo not given in full)	> 100	> 100	> 100 µM			> 100	> 100	> 100			> 100					> 100				
N#C[Se]CCN1C(=O)C2C(C1=O)[C@H]1C=C[C@@H]2S1 (stereo not given in full)	8.06	3.33	4.27 µM			7.7	4.44	3.18	1.31 µM	1.74	3.38	1.69	1.51	1.98	1.75	6.21	1.98	2.16		
